Measurements as given in patent US8344029B2, “Substituted propanamide derivative and pharmaceutical composition containing the same” (Daiichi Sankyo Company, Limited, priority 2005, dated 2013).

Legend:
[1] = tested on: immature rats (4-week old male Wistar rats); experiment: Evaluation of blood calcium concentration-decreasing activity in immature rats; assay type: in vivo; conditions: Rattus norvegicus; 6 hours after oral administration of 10 mg/kg, fasted 4-week old male Wistar rats, vs normal control group; read-out: serum calcium concentration-decreasing rate
Description: The blood calcium concentration in a living body is strictly controlled and constantly maintained by intestinal absorption and urinary excretion and release (bone resorption) and adhesion (bone formation) in bone tissues. […] The bone resorption-suppressing activity of compounds according to the present invention was evaluated by observing decreases in blood calcium concentration in immature rats administered with the compounds as an index of the activity.
The test was conducted using 4-week old male Wistar rats fasted for 12 to 24 hours. Each compound to be tested was suspended in 0.5% methyl cellulose (MC). The suspension was orally administered to the rats at a dose of 5 mL/kg. Rats of a normal control group were similarly administered with 0.5% MC alone. Then, blood was drawn from rat jugular vein under ether anesthesia 6 hours after the administration of each test compound or 0.5% MC. The blood was immediately centrifuged (10000 rpm/revolutions per minute, 5 minutes) at room temperature to separate serum. The calcium concentration of each serum was measured by an autoanalyzer (JEOL, JCA-BM2250). Five rats were used for each test group.
The evaluation was conducted by a comparative test with the normal control group based on the serum calcium concentration-decreasing rate (%) calculated according to the following equation: Serum calcium concentration-decreasing rate(%)=(([serum calcium concentration in normal control group]−[serum calcium concentration in test compound administration group]/[serum calcium concentration in normal control group])×100.

[2] = tested on: adjuvant arthritis model rats (8-week old female Lewis rats); experiment: Bone density decrease-suppressing activity in adjuvant arthritis model rats; assay type: in vivo, rat; conditions: dose 3 mg/kg, oral once a day for 7 days from day 14 after adjuvant injection; femur bone density on the 21st day
Description: In rheumatoid arthritis, not only swelling and pain caused by arthritis but also systemic bone mass decrease and articular destruction caused by a significant increase in bone resorption are observed.
The test was conducted using 8-week old female Lewis rats. Mycobacterium butyricum cells killed by heat were ground in an agate mortar, suspended in liquid paraffin sterilized by dry heat to a concentration of 2 mg/mL, and treated with ultrasonic to prepare an adjuvant. Under ether anesthesia, rats in a control group other than a normal control group and rats in test compound administration group were intradermally injected with 0.05 mL of the adjuvant each time (0.1 mL/rat in total) at two portions of the base of the tail. Starting from 14 days after the injection of the adjuvant, each rat was orally administered with 5 mL/kg of a test compound suspended in 0.5% MC once a day for 7 days. The rats of the control group were similarly administered with 0.5% MC alone. On the 21st day after the adjuvant injection, the femur was biopsied. The femur, after removing soft tissues, was sufficiently fixed, dehydrated, and dried with ethanol. The bone density of the femur was measured with a bone density analyzer (Aloka, DOS-600 EX-IIIR). Five rats were used for each group.
The evaluation was conducted by comparative tests with the normal control group and the control group based on the bone density decrease-suppressing rate (%) calculated according to the following equation: Bone density decrease-suppressing rate(%)=((1−([femur bone density in normal control group]−[femur bone density in test compound administration group]))/([femur bone density in normal control group]−[femur bone density in control group]))×100

SMILES: O=C(NC(Cc1ccc(OC(F)(F)F)cc1)C(=O)NCCO)c1ccc(OCC2CC2)cc1 (stereo not drawn) [Example 19, 4-(Cyclopropylmethoxy)-N-{2-[(2-hydroxyethyl)amino]-2-oxo-1-[4-(trifluoromethoxy)benzyl]ethyl}benzamide]
- inhibition in vivo at 10 mg/kg [1]: ≥ 10%

SMILES: O=C(NC(Cc1ccc(OC(F)F)cc1)C(=O)NCCO)c1ccc(OCCC2CC2)cc1 (stereo not drawn) [Example 3, 4-(2-Cyclopropylethoxy)-N-{1-[4-(difluoromethoxy)benzyl]-2-[(2-hydroxyethyl)amino]-2-oxoethyl}benzamide]
- inhibition in vivo at 10 mg/kg [1]: ≥ 10%

SMILES: O=C(NC(Cc1ccc(C(F)(F)F)cc1)C(=O)NCCO)c1ccc(OCCC2CC2)cc1 (stereo not drawn) [Example 7, 4-(2-Cyclopropylethoxy)-N-{2-[(2-hydroxyethyl)amino]-2-oxo-1-[4-(trifluoromethyl)benzyl]ethyl}benzamide]
- inhibition in vivo at 10 mg/kg [1]: ≥ 10%

SMILES: O=C(NC(Cc1ccc(C2CC2)cc1)C(=O)NCCO)c1ccc(OCC2CC2)cc1 (stereo not drawn) [Example 23, N-{1-(4-Cyclopropylbenzyl)-2-[(2-hydroxyethyl)amino]-2-oxoethyl}-4-(cyclopropylmethoxy)benzamide]
- inhibition in vivo at 10 mg/kg [1]: ≥ 10%

SMILES: O=C(NC(Cc1ccc(OC(F)(F)F)cc1)C(=O)NCCO)c1ccc(OCCCC2CC2)cc1 (stereo not drawn) [Example 25, 4-(3-Cyclopropylpropoxy)-N-{2-[(2-hydroxyethyl)amino]-2-oxo-1-[4-(trifluoromethoxy)benzyl]ethyl}benzamide]
- inhibition in vivo at 10 mg/kg [1]: ≥ 10%

SMILES: O=C(N[C@@H](Cc1ccc(OC(F)F)cc1)C(=O)NCCO)c1ccc(OCCC(F)(F)F)cc1 [Example 59, N-{(1S)-1-[4-(Difluoromethoxy)benzyl]-2-[(2-hydroxyethyl)amino]-2-oxoethyl}-4-(3,3,3-trifluoropropoxy)benzamide]
- Bone density decrease-suppressing rate (%) [2]: 92%

SMILES: O=C(NC(Cc1ccc(OC(F)(F)F)cc1)C(=O)NCCO)c1ccc(OCC(F)F)cc1 (stereo not drawn) [Example 31, 4-(2,2-Difluoroethoxy)-N-{2-[(2-hydroxyethyl)amino]-2-oxo-1-[4-(trifluoromethoxy)benzyl]ethyl}benzamide]
- inhibition in vivo at 10 mg/kg [1]: ≥ 10%

SMILES: O=C(NC(Cc1ccc(OC(F)(F)F)cc1)C(=O)NCCO)c1ccc(OCC2CC2(F)F)cc1 (stereo not drawn) [Example 40, 4-[(2,2-Difluorocyclopropyl)methoxy]-N-{2-[(2-hydroxyethyl)amino]-2-oxo-1-[4-(trifluoromethoxy)benzyl]ethyl}benzamide]
- inhibition in vivo at 10 mg/kg [1]: ≥ 10%

SMILES: O=C(N[C@@H](Cc1ccc(OC(F)(F)F)cc1)C(=O)NCCO)c1ccc(Oc2ccc(C(F)(F)F)cc2)cc1 [Example 64, N-{(1S)-2-[(2-Hydroxyethyl)amino]-2-oxo-1-[4-(trifluoromethoxy)benzyl]ethyl}-4-[4-(trifluoromethyl)phenoxy]benzamide]
- Bone density decrease-suppressing rate (%) [2]: 77%

SMILES: O=C(NC(Cc1ccc(OC(F)(F)F)cc1)C(=O)NCCO)c1ccc(Oc2ccc(C(F)(F)F)cc2)cc1 (stereo not drawn) [Example 42, N-{2-[(2-Hydroxyethyl)amino]-2-oxo-1-[4-(trifluoromethoxy)benzyl]ethyl}-4-[4-(trifluoromethyl)phenoxy]benzamide]
- inhibition in vivo at 10 mg/kg [1]: ≥ 10%

SMILES: O=C(NC(Cc1ccc(OC(F)(F)F)cc1)C(=O)NCCO)c1ccc(OCCC(F)(F)F)cc1 (stereo not drawn) [Example 34, N-{2-[(2-Hydroxyethyl)amino]-2-oxo-1-[4-(trifluoromethoxy)benzyl]ethyl}-4-(3,3,3-trifluoropropoxy)benzamide]
- inhibition in vivo at 10 mg/kg [1]: ≥ 10%

SMILES: O=C(NC(Cc1ccc(C(F)(F)F)cc1)C(=O)NCCO)c1ccc(OCC2CC2)cc1 (stereo not drawn) [Example 22, 4-(Cyclopropylmethoxy)-N-{2-[(2-hydroxyethyl)amino]-2-oxo-1-[4-(trifluoromethyl)benzyl]ethyl}benzamide]
- inhibition in vivo at 10 mg/kg [1]: ≥ 10%

SMILES: O=C(N[C@@H](Cc1ccc(OC(F)(F)F)cc1)C(=O)NCCO)c1ccc(OCC2CC2)cc1 [Example 51, 4-(Cyclopropylmethoxy)-N-{(1S)-2-[(2-hydroxyethyl)amino]-2-oxo-1-[4-(trifluoromethoxy)benzyl]ethyl}benzamide]
- Bone density decrease-suppressing rate (%) [2]: 85%

SMILES: O=C(NC(Cc1ccc(OC(F)(F)F)cc1)C(=O)NCCO)c1ccc(OCCC2CC2)cc1 (stereo not drawn) [Example 4, 4-(2-Cyclopropylethoxy)-N-{2-[(2-hydroxyethyl)amino]-2-oxo-1-[4-(trifluoromethoxy)benzyl]ethyl}benzamide]
- inhibition in vivo at 10 mg/kg [1]: ≥ 10%

SMILES: O=C(N[C@@H](Cc1ccc(OC(F)(F)F)cc1)C(=O)NCCO)c1ccc(OCCC(F)(F)F)cc1 [Example 57, N-{(1S)-2-[(2-Hydroxyethyl)amino]-2-oxo-1-[4-(trifluoromethoxy)benzyl]ethyl}-4-(3,3,3-trifluoropropoxy)benzamide]
- Bone density decrease-suppressing rate (%) [2]: 86%

SMILES: O=C(N[C@@H](Cc1ccc(C(F)(F)F)cc1)C(=O)NCCO)c1ccc(OCCC(F)(F)F)cc1 [Example 61, N-{(1S)-2-[(2-Hydroxyethyl)amino]-2-oxo-1-[4-(trifluoromethyl)benzyl]ethyl}-4-(3,3,3-trifluoropropoxy)benzamide]
- Bone density decrease-suppressing rate (%) [2]: 75%

SMILES: O=C(NC(Cc1ccc(OC(F)F)cc1)C(=O)NCCO)c1ccc(OCC2CC2)cc1 (stereo not drawn) [Example 18, 4-(Cyclopropylmethoxy)-N-{1-[4-(difluoromethoxy)benzyl]-2-[(2-hydroxyethyl)amino]-2-oxoethyl}benzamide]
- inhibition in vivo at 10 mg/kg [1]: ≥ 10%

SMILES: O=C(NC(Cc1ccc(OC2CC2)cc1)C(=O)NCCO)c1ccc(OCC2CC2)cc1 (stereo not drawn) [Example 20, 4-(Cyclopropylmethoxy)-N-{1-[4-(cyclopropyloxy)benzyl]-2-[(2-hydroxyethyl)amino]-2-oxoethyl}benzamide]
- inhibition in vivo at 10 mg/kg [1]: ≥ 10%
